In US20260184725A1, “CYCLIC 2-AMINOPYRIMIDINE COMPOUND AND PHARMACEUTICAL COMPOSITION AND USE THEREOF” (SHANGHAI INSTITUTE OF ORGANIC CHEMISTRY, CHINESE ACADEMY OF …, priority 2023, published 2026):

Columns and labels:
Assay type in all cases: biochemical
EGFR^19del/T790M/C797S = target: T1, EGFR^19del/T790M/C797S (Homo sapiens, UniProt P00533, T790M/C797S, form not given); test: ELISA kinase activity inhibition, EGFR 19del/T790M/C797S; details: ATP 5 μM, read-out: The average IC50 value (nM) for inhibiting the activity of different tyrosine kinases, EGFR^19del/T790M/C797S
T1 construct: fused on or other part: Probably a GST tag on the cytoplasmic fragment, as in the vendor's product
T1 sequence (P00533 with tags, fused parts or gaps DEL746-750/T790M/C797S, form open): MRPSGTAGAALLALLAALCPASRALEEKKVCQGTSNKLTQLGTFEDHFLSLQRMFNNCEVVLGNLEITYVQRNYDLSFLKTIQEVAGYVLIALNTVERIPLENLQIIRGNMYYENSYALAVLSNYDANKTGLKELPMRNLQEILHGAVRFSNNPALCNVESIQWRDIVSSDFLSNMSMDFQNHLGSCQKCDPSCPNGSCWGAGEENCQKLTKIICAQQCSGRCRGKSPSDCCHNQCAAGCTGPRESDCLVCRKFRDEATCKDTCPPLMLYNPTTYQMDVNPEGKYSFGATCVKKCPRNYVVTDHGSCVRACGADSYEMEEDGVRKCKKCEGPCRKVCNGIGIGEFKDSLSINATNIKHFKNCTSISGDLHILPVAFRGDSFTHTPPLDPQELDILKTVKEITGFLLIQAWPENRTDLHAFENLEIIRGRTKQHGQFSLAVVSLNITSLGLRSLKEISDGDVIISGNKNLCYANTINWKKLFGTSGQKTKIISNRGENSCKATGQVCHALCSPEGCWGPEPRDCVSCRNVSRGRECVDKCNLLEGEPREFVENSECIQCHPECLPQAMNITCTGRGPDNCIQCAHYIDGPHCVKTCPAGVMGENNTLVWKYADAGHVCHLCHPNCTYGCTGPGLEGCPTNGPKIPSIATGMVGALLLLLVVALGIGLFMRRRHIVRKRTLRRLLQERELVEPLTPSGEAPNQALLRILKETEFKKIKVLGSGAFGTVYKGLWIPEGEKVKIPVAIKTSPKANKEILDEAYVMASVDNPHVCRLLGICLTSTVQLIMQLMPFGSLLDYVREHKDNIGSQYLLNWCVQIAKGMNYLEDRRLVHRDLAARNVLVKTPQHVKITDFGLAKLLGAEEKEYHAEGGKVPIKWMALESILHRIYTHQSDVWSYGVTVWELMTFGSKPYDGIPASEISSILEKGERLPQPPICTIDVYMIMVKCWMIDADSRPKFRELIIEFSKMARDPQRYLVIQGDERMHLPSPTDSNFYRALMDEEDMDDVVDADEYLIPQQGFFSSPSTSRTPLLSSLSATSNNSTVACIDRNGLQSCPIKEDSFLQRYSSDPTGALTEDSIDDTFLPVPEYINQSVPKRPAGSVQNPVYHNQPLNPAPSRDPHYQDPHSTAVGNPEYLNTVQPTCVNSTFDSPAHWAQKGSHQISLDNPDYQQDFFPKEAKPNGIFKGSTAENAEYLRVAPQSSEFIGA
Protocol: (§1) EGFR (WT) is a wild-type epidermal growth factor receptor.
(§2) Enzyme-Linked Immunosorbent Assay (ELISA) was used to detect the inhibitory effect of compounds on kinase activity.
(§3) The main experimental steps were as follows: Enzyme reaction substrate Poly (Glu, Tyr)4:1 was diluted with potassium free PBS (10 mM sodium phosphate buffer, 150 mM NaCl, pH 7.2-7.4) to 20 μg/mL, and reacted at 37° C. for 12 hours to 16 hours to coat the enzyme-linked immunosorbent assay plate. ATP solution (final concentration 5 μM) diluted with reaction buffer (50 mM HEPES pH 7.4, 50 mM MgCl2, 0.5 mM MnCl2, 0.2 mM Na3VO4, 1 mM DTT) was added to each well, followed by the test compound or solvent control, then the kinase reaction was initiated and the plate was shaken at 37° C. for 1 hour. The plate was washed three times with T-PBS, then added antibody PY99. The plate was shaken at 37° C. for 0.5 hours. After washing the plate with T-PBS, added horseradish peroxidase-labeled IgG and shaken at 37° C. for 0.5 hours. After washing the plate again, added 2 mg/mL of OPD colorimetric solution and incubated at 25° C. in the dark for 1 minutes to 10 minutes. […] The IC50 values were obtained from the inhibition curve analysis.

EGFR^WT = target: T2, EGFR^WT (Homo sapiens, UniProt P00533); test: ELISA kinase activity inhibition, wild-type EGFR; details: ATP 5 μM, read-out: The average IC50 value (nM) for inhibiting the activity of different tyrosine kinases, EGFR^WT
T2 construct: purchased Eurofins
T2 sequence (P00533 25-1210): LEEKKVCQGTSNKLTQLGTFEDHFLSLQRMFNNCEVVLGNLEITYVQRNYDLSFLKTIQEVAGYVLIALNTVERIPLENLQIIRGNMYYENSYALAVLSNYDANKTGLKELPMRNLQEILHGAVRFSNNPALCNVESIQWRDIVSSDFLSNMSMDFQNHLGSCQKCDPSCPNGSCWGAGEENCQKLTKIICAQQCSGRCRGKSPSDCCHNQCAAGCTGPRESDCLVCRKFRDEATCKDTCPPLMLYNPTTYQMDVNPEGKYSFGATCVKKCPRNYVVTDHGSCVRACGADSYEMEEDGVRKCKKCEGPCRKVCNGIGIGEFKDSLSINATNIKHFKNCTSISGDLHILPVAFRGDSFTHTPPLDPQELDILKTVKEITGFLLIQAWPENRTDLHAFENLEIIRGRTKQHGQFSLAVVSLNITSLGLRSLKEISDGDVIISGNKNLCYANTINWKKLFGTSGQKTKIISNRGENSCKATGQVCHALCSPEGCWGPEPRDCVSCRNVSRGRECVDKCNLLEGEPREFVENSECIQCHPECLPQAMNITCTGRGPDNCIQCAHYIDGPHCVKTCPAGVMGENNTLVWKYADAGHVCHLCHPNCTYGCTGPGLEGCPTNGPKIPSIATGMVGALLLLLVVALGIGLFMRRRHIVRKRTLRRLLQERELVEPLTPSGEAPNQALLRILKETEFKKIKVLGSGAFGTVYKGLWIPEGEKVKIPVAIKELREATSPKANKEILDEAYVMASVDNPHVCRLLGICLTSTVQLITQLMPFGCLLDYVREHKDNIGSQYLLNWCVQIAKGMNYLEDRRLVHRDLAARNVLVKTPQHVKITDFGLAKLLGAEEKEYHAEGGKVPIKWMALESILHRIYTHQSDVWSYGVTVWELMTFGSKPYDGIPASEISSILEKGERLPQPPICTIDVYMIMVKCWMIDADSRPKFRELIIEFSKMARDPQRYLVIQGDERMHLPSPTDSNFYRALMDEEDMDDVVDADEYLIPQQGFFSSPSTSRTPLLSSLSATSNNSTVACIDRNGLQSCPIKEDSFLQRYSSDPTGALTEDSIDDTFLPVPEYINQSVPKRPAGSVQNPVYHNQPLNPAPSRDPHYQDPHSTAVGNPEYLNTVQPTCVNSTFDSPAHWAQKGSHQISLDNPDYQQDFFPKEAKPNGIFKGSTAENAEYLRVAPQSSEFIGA
Protocol: as §1, §2, §3

EGFR^L858R/T790M/C797S = EGFR^L858R/T790M/C797S (Homo sapiens, UniProt P00533, C797S/L858R/T790M); test: ELISA kinase activity inhibition, EGFR L858R/T790M/C797S; details: ATP 5 μM, read-out: The average IC50 value (nM) for inhibiting the activity of different tyrosine kinases, EGFR^L858R/T790M/C797S
Chain of EGFR^L858R/T790M/C797S (P00533 25-1210 T790M/C797S/L858R): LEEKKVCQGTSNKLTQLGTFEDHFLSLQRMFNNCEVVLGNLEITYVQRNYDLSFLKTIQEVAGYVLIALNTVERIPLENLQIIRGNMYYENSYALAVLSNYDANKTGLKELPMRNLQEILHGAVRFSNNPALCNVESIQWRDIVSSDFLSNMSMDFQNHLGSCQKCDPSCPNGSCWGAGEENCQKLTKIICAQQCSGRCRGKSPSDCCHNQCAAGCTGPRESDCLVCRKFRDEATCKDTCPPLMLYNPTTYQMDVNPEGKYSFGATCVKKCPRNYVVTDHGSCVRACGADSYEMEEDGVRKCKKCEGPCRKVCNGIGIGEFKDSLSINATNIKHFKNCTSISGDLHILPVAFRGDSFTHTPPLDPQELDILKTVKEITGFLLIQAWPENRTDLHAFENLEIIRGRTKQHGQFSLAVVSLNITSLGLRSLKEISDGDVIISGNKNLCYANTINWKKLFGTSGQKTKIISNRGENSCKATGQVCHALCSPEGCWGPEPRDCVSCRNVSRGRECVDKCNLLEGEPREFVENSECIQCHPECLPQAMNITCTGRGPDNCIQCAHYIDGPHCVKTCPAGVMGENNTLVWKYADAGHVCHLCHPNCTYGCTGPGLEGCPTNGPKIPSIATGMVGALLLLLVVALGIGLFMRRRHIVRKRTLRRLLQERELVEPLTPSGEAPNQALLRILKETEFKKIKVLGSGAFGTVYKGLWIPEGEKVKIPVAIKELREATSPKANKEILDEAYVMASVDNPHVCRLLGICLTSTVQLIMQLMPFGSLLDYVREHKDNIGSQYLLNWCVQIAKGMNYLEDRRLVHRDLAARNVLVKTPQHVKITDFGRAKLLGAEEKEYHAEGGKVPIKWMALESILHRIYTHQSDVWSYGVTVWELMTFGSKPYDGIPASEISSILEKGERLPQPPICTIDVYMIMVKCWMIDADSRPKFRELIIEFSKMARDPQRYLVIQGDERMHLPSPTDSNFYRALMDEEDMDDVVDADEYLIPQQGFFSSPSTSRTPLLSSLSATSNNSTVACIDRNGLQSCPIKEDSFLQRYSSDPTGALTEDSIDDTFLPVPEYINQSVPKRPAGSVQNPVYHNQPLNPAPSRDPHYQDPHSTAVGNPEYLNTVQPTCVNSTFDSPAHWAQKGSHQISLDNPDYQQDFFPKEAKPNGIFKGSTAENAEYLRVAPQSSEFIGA
Protocol: as §2, §3

With `CCS(=O)(=O)n1cc2c3ccc(cc31)OCCCn1ccc(n1)-c1cc(c(C(C)C)cc1N1CCOCC1)Nc1nccc-2n1` [FBH-3-48, (Z)-1^1-(ethylsulfonyl)-4^6-isopropyl-4^4-morpholino-1^1H,5^1H-9-oxa-3-aza-1(3,6)-indole-2(4,2)-pyrimidine-5(4,1)-pyrazole-4(1,3)-benzenacyclononaphane] the IC50 (EGFR^19del/T790M/C797S) was 8.2 nM and the IC50 (EGFR^WT) was greater than 1000 nM.

In the case of `CCS(=O)(=O)n1cc2c3ccc(cc31)OCCCn1ccc(n1)-c1cc(c(C3CC3)cc1N1CCOCC1)Nc1nccc-2n1` [FBH-3-66, (Z)-4^6-cyclopropyl-1^1-(ethylsulfonyl)-4^4-morpholino-1^1H,5^1H-9-oxa-3-aza-1(3,6)-indole-2(4,2)-pyrimidine-5(4,1)-pyrazol-4(1,3)-benzenacyclononaphane], the IC50 (EGFR^19del/T790M/C797S) is reported as 33 nM and the IC50 (EGFR^WT) is reported as greater than 1000 nM.

With `CCS(=O)(=O)n1cc2c3ccc(cc31)OCCCn1ccc(n1)-c1cc(c(OC(C)C)cc1N1CCOCC1)Nc1nccc-2n1` [FBH-3-84, (Z)-1^1-(ethylsulfonyl)-4^6-isopropoxy-4^4-morpholinyl-1^1H,5^1H-9-oxa-3-aza-1(3,6)-indole-2(4,2)-pyrimidin-5(4,1)-pyrazol-4(1,3)-benzocyclononaphthalene] the IC50 (EGFR^19del/T790M/C797S) was 267 nM and the IC50 (EGFR^WT) was greater than 1000 nM.

With `CCS(=O)(=O)n1cc2c3ccc(cc31)OCCCn1ccc(n1)-c1cc(c(C(F)(F)F)cc1N1CCOCC1)Nc1nccc-2n1` [FBH-3-92, (Z)-1^1-(ethylsulfonyl)-4^4-morpholinyl-4^6-(trifluoromethyl)-1^1H,5^1H-9-oxa-3-aza-1(3,6)-indole-2(4,2)-pyrimidine-5(4,1)-pyrazole-4(1,3)-benzenacyclononaphane] the IC50 (EGFR^L858R/T790M/C797S) was 159 nM and the IC50 (EGFR^WT) was greater than 1000 nM.

Compound `CCS(=O)(=O)n1cc2c3ccc(cc31)OCCCn1ccc(n1)-c1cc(c(OC)cc1N1CCOCC1)Nc1nccc-2n1` [FBH-4-6, (E)-1^1-(ethylsulfonyl)-4^6-methoxy-4^4-morpholinyl-1^1H,5^1H-9-oxa-3-aza-1(3,6)-indole-2(4,2)-pyrimidine-5(3,1)-pyrazole-4(1,3)-benzocyclononaphthalene] has an IC50 (EGFR^L858R/T790M/C797S) of 147 nM and an IC50 (EGFR^WT) greater than 1000 nM.

Work on `CCS(=O)(=O)n1cc2c3ccc(cc31)OCCCn1ccc(n1)-c1cc(c(OC3CC3)cc1N1CCOCC1)Nc1nccc-2n1` [FBH-4-24, (Z)-4^6-cyclopropoxy-1^1-(ethylsulfonyl)-4^4-morpholinyl-1^1H,5^1H-9-oxa-3-aza-1(3,6)-indole-2(4,2)-pyrimidine-5(4,1)-pyrazole-4(1,3)-benzocyclononaphthalene] yielded an IC50 (EGFR^L858R/T790M/C797S) of 98.5 nM and an IC50 (EGFR^WT) of 189 nM.

`CCS(=O)(=O)n1cc2c3ccc(cc31)OCCCn1ccc(n1)-c1cc(c(OC(F)(F)F)cc1N1CCOCC1)Nc1nccc-2n1` [FBH-4-48, (Z)-1^1-(ethylsulfonyl)-4^4-morpholinyl-4^6-(trifluoromethoxy)-1^1H,5^1H-9-oxa-3-aza-1(3,6)-indole-2(4,2)-pyrimidine-5(4,1)-pyrazole-4(1,3)-benzocyclononaphthalene] gave an IC50 (EGFR^L858R/T790M/C797S) of 135 nM and an IC50 (EGFR^WT) greater than 1000 nM.

`CCS(=O)(=O)n1cc2c3ccc(cc31)OCCCn1cc(cn1)-c1cc(c(C)cc1N1CCOCC1)Nc1ncc(Cl)c-2n1` [HC916, 2^5-chloro-1^1-ethylsulfonyl-4^6-methyl-4^4-morpholino-1^1H,5^1H-9-oxa-3-aza-1(3,6)-indole-2(4,2)-pyrimidin-5(4,1)-pyrazol-4(1,3)-benzenacyclononaphane] was tested, and the IC50 (EGFR^L858R/T790M/C797S) was 167 nM, the IC50 (EGFR^19del/T790M/C797S) was 129 nM and the IC50 (EGFR^WT) was greater than 1000 nM.

For `Cc1cc(N2CCOCC2)c2cc1Nc1ncc(Cl)c(n1)-c1cn(C)c3cc(ccc13)OCCCn1cc-2cn1` [HC8991, 2^5-Chloro-1^1,4^6-dimethyl-4^4-morpholino-1^1H,5^1H-9-oxa-3-aza-1(3,6)-Indole-2(4,2)-Pyrimidin-5(4,1)-Pyrazolol-4(1,3)-benzenacyclononaphane], the IC50 (EGFR^19del/T790M/C797S) was 6.8 nM and the IC50 (EGFR^WT) was greater than 1000 nM.

With `CCS(=O)(=O)n1cc2c3ccc(cc31)OCCCn1cc(cn1)-c1cc(cc(C3CCCC3)c1N1CCOCC1)Nc1ncc(Cl)c-2n1` [HC9001, 2^5-chloro-4^5-cyclopentyl-1^1-ethylsulfonyl-4^4-morpholino-1^1H,5^1H-9-oxa-3-aza-1(3,6)-indole-2(4,2)-pyrimidin-5(4,1)-pyrazol-4(1,3)-benzenacyclononaphane] the IC50 (EGFR^L858R/T790M/C797S) was 183 nM, the IC50 (EGFR^19del/T790M/C797S) was 82.3 nM and the IC50 (EGFR^WT) was greater than 1000 nM.

Work on `C=C(C)c1cc2cc(c1N1CCOCC1)-c1cnn(c1)CCCOc1ccc3c(cn(S(=O)(=O)CC)c3c1)-c1nc(ncc1Cl)N2` [HC9002, 2^5-Chloro-1^1-ethylsulfonyl-4^4-morpholino-4^5-propenyl-1^1H,5^1H-9-oxa-3-aza-1(3,6)-indole-2(4,2)-pyrimidine-5(4,1)-pyrazole-4(1,3)-benzenacyclononaphane] yielded an IC50 (EGFR^L858R/T790M/C797S) of 59 nM, an IC50 (EGFR^19del/T790M/C797S) of 24.7 nM and an IC50 (EGFR^WT) greater than 1000 nM.

`CCS(=O)(=O)n1cc2c3ccc(cc31)OCCCn1cc(cn1)-c1cc(cc(C=C(C)C)c1N1CCOCC1)Nc1ncc(Cl)c-2n1` [HC9003, 2^5-Chloro-1^1-ethylsulfonyl-4^4-morpholino-4^5-2-methylpropan-1-en-1-yl-1^1H,5^1H-9-oxa-3-aza-1(3,6)-indole-2(4,2)-pyrimidine-5(4,1)-pyrazole-4(1,3)-benzenacyclononaphane] showed an IC50 (EGFR^L858R/T790M/C797S) of 69.7 nM, an IC50 (EGFR^19del/T790M/C797S) of 29 nM and an IC50 (EGFR^WT) greater than 1000 nM.

Work on `CCS(=O)(=O)n1cc2c3ccc(cc31)OCCCn1cc(cn1)-c1cc(cc(/C=C/C(C)(C)C)c1N1CCOCC1)Nc1ncc(Cl)c-2n1` [HC9004] yielded an IC50 (EGFR^L858R/T790M/C797S) of 384 nM, an IC50 (EGFR^19del/T790M/C797S) of 195 nM and an IC50 (EGFR^WT) greater than 1000 nM.

`CCS(=O)(=O)n1cc2c3ccc(cc31)OCC(C)Cn1cc(cn1)-c1cc(ccc1N1CCOCC1)Nc1ncc(Cl)c-2n1` (centres unmarked) [HC9281, 2^5-chloro-1^1-ethylsulfonyl-7-methyl-4^4-morpholino-1^1H, 5^1H-9-oxa-3-aza-1(3,6)-indole-2(4,2)-pyrimidine-5(4,1)-pyrazole-4(1,3)-benzenacyclononaphane] showed an IC50 (EGFR^L858R/T790M/C797S) of 30.5 nM, an IC50 (EGFR^19del/T790M/C797S) of 30.5 nM and an IC50 (EGFR^WT) greater than 1000 nM.

`CCS(=O)(=O)n1cc2c3ccc(cc31)OCC1(CC1)Cn1cc(cn1)-c1cc(ccc1N1CCOCC1)Nc1ncc(Cl)c-2n1` [HC9282, (Z)-5′-Chloro-1′(Ethylsulfonyl)-4′-morpholino spiro [Cyclopropane-1,7′-9-oxa-3-aza-1(3,6)-indole-2(4,2)-pyrimidine-5(4,1)-pyrazolol-4(1,3)-benzenacyclononaphane]] showed an IC50 (EGFR^L858R/T790M/C797S) of 45.8 nM, an IC50 (EGFR^19del/T790M/C797S) of 45.8 nM and an IC50 (EGFR^WT) greater than 1000 nM.

`CCS(=O)(=O)n1cc2c3ccc(cc31)OCCCn1cc(cn1)-c1cc(c(OC)cc1N1CCOC(C)C1)Nc1nccc-2n1` (centres unmarked) [WQX-2-43, (Z)-1^1-(Ethylsulfonyl)-4^6-methoxy-4^4-(2-methylmorpholinyl)-1^1H,5^1H-9-oxa-3-aza-1(3,6)-indol-2(4,2)-pyrimidin-5(4,1)-pyrazol-4(1,3)-benzocyclononane] gave an IC50 (EGFR^L858R/T790M/C797S) of 57.8 nM and an IC50 (EGFR^WT) of 146 nM.

`CCS(=O)(=O)n1cc2c3ccc(cc31)OCCCn1cc(cn1)-c1cc(c(OC)cc1N1CCOCC1)Nc1ncc(F)c-2n1` [WQX-2-79, (Z)-1^1-(ethylsulfonyl)-2^5-fluoro-4^6-methoxy-4^4-morpholinyl-1^1H,5^1H-9-oxa-3-aza-1(3,6)-indole-2(4,2)-pyrimidin-5(4,1)-pyrazol-4(1,3)-benzenacyclononaphane] was tested, and the IC50 (EGFR^L858R/T790M/C797S) was 102 nM and the IC50 (EGFR^WT) was 255 nM.
